# Results reported in ChEMBL document CHEMBL1201862, “PubChem BioAssay data set” (2004).
# Calls of active or inactive are those of the source.
# How the values were obtained:
# [1] = biological target: T1, DNA repair protein RAD52 homolog (Homo sapiens, UniProt P43351); type: functional, biochemical
# T1 sequence (P43351 whole entry): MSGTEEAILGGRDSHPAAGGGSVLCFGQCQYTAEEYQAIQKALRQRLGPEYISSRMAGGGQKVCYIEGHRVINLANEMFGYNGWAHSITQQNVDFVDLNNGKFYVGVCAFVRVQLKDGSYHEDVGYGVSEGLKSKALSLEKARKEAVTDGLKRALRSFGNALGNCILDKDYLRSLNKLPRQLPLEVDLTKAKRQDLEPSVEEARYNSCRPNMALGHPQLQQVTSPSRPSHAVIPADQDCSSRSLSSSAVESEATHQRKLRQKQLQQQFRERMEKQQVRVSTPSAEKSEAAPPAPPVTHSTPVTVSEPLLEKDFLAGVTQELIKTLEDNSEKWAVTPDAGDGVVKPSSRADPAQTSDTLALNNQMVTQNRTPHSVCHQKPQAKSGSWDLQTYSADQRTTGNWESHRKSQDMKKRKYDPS
# [2] = biological target: T2, Carboxy-terminal domain RNA polymerase II polypeptide A small phosphatase 1 (Homo sapiens, UniProt Q9GZU7); test: CTDSP1 inhibitors, concentration-response, biochemical, absorbance readout, ultra-high-throughput screen actives (AID 540297); type: functional
# T2 sequence (Q9GZU7 whole entry): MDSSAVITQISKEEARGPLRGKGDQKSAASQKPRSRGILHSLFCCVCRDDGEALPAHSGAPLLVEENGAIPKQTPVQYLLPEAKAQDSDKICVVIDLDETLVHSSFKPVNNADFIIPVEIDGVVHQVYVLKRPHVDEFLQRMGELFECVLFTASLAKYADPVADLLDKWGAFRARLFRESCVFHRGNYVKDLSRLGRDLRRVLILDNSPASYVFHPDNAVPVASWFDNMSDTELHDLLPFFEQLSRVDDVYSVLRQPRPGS
# [3] = biological target: DNA (cytosine-5)-methyltransferase 1 (Homo sapiens, UniProt P26358); test: inhibition of DNA methylation by DNMT1 – biochemical, fluorescent molecular beacon, confirmation (AID 602386); type: functional
# [4] = luciferase reporter signal suppression in cells – H4 neuroglioma cells, luminescence, dose response (AID 1990); type: functional, cell-based
# [5] = Luminescence Cell-Based Dose Response HTS to Identify Inhibitors of 5'UTR Stem-Loop Driven Prion Protein mRNA Translation in H4 Neuroglioblastoma Cells. [Related pubchem assays: 1827 (Project Summary), 1813 (Primary HTS)]; type: functional
# [6] = alpha-synuclein stem-loop luciferase translation blockers – H4 neuroglioma cells, luminescence, confirmation (AID 1988); type: functional, cell-based
# [7] = cells; type: functional, cell-based
# [8] = biological target: T3, Nuclear receptor subfamily 0 group B member 1 (Homo sapiens, UniProt P51843); type: functional, cell-based;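 note: HEK293T cells transfected with SF-1 and DAX-1 plus StAR promoter luciferase reporter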
# T3 sequence (P51843 whole entry): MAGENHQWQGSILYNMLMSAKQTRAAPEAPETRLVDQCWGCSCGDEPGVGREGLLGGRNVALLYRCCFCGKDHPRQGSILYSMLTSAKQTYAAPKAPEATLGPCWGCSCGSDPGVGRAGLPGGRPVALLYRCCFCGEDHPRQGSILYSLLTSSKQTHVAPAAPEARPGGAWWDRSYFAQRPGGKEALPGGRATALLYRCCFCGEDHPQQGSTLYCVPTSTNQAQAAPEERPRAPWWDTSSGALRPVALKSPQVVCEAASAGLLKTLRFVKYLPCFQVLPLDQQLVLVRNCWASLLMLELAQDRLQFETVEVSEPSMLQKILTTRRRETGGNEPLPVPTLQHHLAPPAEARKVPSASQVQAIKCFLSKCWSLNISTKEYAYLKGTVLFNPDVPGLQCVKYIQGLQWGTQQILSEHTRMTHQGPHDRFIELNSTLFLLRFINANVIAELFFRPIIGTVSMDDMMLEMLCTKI
# [9] = biological target: FAD-linked sulfhydryl oxidase ALR (Homo sapiens, UniProt P55789); test: ALR-catalysed DTT oxidation blockers – biochemical, H2O2 detection, luminescence, cherry-pick, dose response (AID 493248)
# [10] = biological target: Albumin (Bos taurus, UniProt P02769); test: Counterscreen for inhibitors of T-cell receptor (TCR)-CD3 interaction: Fluorescence-based biochemical high throughput dose response assay to identify inhibitors of T-cell receptor (TCR)-CD3 interaction using a TAMRA-labeled BSA probe.; type: functional
# [11] = biological target: SWI/SNF-related matrix-associated actin-dependent regulator of chromatin subfamily A member 2 (Homo sapiens, UniProt P51531); test: Luminescence-based cell-based high throughput dose response assay to identify activators of the function of SWI/SNF related, matrix associated, actin dependent regulator of chromatin, subfamily a, member 2 (SMARCA2, BRM).; type: functional
# [12] = Counterscreen for activators of the function of SWI/SNF related, matrix associated, actin dependent regulator of chromatin, subfamily a, member 2 (SMARCA2, BRM): Luminescence-based cell-based high throughput dose response assay to identify non-selective compounds using the VP16 reporter assay.; type: functional
# [13] = HEK-293T viability loss after treatment – luminescence, T-cell screen hits, cytotoxicity control for TCR NF-kB inhibitor project, dose response (AID 489026); type: functional, cell-based;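 note: cells exposed to compound about 14 hours before the viability readout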
# [14] = biological target: T4, Microphthalmia-associated transcription factor (Homo sapiens, UniProt O75030); test: reducers of TRPM1 reporter luminescence, concentration series – cell-based, SK-MEL-5, cherry-picked, set 3, MITF inhibitor project, dose response (AID 493073); type: functional;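 note: SK-MEL-5 melanoma cells with luciferase driven by the MITF target TRPM1 promoter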
# T4 sequence (O75030 whole entry): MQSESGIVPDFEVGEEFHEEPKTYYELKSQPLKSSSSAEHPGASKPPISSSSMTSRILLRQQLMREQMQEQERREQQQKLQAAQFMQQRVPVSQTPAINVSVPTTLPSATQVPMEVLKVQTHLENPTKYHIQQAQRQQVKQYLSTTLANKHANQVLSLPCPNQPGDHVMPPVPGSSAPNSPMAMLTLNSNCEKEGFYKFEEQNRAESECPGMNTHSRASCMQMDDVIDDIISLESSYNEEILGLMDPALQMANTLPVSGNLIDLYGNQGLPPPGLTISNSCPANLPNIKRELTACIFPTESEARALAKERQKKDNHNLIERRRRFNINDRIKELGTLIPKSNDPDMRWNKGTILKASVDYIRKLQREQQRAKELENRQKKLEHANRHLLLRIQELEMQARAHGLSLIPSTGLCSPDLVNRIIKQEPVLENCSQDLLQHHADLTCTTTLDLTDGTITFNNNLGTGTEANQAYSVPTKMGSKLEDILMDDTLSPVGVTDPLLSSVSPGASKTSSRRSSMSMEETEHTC
# [15] = biological target: Paired box protein Pax-8 (Homo sapiens, UniProt Q06710); test: PAX8 transcriptional activity inhibition in RMG-I – RMG-I cells, luciferase, cherry-pick, dose response (AID 687027); type: functional, cell-based;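 note: luciferase reporter driven by Pax8 target thyroperoxidase promoter measured by SteadyGlo luminescence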
# [16] = microbe, parasite or virus in culture; type: functional; details: Mycobacterium tuberculosis
# [17] = THP-1 cell cytotoxicity, dose response, cytotoxicity control for non-replicating M. tuberculosis project (AID 489025); type: functional
# [18] = Vero E6 cell cytotoxicity, dose response, cytotoxicity control for non-replicating M. tuberculosis project, secondary assay (AID 492998); type: functional, VeroE6; details: Vero C1008
# [19] = cells; type: functional
# [20] = biological target: T5, DNA repair and recombination protein RAD54-like (Homo sapiens, UniProt Q92698); test: RAD54 Holliday junction migration blockers – biochemical, fluorescence, cherry-picked samples, dose series, confirmation (AID 651657); type: functional
# T5 sequence (Q92698 whole entry): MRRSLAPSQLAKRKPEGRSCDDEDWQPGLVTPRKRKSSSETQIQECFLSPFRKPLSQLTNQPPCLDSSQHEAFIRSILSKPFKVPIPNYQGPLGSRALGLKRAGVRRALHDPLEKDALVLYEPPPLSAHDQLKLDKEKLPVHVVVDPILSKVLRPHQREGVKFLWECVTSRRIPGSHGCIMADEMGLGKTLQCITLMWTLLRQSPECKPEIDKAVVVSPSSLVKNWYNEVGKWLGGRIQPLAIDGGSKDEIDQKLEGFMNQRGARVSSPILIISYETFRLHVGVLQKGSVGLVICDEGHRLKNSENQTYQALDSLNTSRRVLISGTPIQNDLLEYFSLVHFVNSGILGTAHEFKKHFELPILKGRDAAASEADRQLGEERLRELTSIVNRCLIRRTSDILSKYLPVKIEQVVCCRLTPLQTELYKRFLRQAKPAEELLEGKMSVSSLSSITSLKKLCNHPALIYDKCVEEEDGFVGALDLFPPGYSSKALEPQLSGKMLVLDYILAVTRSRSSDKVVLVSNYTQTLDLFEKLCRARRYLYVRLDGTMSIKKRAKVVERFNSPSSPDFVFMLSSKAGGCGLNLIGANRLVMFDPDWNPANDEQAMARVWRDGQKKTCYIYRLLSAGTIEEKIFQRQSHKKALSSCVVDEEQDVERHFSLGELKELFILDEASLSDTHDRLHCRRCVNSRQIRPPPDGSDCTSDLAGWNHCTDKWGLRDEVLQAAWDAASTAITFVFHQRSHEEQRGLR
# [21] = biological target: T6, Aryl hydrocarbon receptor (Homo sapiens, UniProt P35869); details: Potency;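 note: confirmatory quantitative high-throughput screen measuring activation of the AhR signaling pathway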
# T6 sequence (P35869 whole entry): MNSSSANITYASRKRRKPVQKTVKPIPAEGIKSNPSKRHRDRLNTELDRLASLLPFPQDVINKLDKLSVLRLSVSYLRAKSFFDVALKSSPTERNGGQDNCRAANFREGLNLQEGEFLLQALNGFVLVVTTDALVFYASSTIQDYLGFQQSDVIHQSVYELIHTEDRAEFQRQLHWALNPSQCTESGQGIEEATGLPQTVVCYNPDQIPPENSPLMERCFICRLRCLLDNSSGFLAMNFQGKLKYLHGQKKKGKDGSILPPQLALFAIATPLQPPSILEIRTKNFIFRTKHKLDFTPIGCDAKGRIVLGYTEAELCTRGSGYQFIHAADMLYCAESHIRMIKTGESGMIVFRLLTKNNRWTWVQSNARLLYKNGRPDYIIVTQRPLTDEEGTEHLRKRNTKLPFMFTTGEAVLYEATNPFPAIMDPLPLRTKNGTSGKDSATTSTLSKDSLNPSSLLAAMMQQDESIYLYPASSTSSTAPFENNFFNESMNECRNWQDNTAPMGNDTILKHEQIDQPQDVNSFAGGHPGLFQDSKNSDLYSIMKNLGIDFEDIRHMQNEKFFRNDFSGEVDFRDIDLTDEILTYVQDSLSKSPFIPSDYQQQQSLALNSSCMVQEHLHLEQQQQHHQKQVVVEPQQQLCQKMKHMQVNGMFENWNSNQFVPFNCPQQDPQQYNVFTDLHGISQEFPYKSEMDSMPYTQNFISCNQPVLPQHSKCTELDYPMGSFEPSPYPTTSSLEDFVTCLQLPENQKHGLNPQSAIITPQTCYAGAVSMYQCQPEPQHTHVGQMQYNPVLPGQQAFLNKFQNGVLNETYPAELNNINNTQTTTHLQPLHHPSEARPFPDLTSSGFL
# Sequence of SWI/SNF-related matrix-associated actin-dependent regulator of chromatin subfamily A member 2 (P51531 whole entry): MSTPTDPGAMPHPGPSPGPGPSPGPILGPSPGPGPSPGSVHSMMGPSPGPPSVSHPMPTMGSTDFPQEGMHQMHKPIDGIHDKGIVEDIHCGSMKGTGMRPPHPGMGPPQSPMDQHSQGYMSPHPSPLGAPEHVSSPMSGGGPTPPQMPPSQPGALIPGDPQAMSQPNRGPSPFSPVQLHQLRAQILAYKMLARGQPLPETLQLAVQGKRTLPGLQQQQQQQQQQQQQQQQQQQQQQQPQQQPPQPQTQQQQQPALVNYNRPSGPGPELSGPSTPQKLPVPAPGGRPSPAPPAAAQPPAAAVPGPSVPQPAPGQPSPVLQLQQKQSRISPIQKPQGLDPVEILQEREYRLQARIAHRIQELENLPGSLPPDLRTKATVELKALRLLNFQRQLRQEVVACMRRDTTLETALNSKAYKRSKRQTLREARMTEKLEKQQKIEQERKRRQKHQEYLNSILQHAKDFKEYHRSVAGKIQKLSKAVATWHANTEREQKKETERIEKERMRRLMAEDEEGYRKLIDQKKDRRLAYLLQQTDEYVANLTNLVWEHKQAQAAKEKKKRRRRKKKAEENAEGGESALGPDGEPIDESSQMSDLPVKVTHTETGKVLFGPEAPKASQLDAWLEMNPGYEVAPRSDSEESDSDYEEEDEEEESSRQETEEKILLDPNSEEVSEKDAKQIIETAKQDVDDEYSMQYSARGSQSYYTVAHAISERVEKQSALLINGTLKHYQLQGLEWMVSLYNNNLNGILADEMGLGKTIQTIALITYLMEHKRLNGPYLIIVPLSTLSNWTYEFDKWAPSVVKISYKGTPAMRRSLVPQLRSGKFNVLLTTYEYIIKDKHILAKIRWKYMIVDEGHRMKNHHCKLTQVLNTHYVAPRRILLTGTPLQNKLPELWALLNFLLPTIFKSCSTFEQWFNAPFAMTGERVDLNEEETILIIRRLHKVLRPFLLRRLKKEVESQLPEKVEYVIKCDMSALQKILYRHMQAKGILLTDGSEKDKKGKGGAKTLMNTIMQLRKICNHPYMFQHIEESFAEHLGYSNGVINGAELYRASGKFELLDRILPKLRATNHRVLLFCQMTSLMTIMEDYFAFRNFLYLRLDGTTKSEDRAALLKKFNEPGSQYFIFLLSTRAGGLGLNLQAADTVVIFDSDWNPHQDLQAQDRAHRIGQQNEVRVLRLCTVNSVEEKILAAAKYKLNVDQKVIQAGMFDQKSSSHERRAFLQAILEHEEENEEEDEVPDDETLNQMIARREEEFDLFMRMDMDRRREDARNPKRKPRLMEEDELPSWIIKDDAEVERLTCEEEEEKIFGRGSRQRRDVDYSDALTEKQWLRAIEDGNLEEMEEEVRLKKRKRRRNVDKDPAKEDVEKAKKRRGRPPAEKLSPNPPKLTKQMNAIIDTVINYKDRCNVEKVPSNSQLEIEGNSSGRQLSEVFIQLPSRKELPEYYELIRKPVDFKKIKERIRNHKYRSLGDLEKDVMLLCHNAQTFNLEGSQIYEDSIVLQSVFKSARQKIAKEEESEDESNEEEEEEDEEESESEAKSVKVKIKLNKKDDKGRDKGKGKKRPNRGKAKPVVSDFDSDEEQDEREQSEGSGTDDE
# Sequence of DNA (cytosine-5)-methyltransferase 1 (P26358 whole entry): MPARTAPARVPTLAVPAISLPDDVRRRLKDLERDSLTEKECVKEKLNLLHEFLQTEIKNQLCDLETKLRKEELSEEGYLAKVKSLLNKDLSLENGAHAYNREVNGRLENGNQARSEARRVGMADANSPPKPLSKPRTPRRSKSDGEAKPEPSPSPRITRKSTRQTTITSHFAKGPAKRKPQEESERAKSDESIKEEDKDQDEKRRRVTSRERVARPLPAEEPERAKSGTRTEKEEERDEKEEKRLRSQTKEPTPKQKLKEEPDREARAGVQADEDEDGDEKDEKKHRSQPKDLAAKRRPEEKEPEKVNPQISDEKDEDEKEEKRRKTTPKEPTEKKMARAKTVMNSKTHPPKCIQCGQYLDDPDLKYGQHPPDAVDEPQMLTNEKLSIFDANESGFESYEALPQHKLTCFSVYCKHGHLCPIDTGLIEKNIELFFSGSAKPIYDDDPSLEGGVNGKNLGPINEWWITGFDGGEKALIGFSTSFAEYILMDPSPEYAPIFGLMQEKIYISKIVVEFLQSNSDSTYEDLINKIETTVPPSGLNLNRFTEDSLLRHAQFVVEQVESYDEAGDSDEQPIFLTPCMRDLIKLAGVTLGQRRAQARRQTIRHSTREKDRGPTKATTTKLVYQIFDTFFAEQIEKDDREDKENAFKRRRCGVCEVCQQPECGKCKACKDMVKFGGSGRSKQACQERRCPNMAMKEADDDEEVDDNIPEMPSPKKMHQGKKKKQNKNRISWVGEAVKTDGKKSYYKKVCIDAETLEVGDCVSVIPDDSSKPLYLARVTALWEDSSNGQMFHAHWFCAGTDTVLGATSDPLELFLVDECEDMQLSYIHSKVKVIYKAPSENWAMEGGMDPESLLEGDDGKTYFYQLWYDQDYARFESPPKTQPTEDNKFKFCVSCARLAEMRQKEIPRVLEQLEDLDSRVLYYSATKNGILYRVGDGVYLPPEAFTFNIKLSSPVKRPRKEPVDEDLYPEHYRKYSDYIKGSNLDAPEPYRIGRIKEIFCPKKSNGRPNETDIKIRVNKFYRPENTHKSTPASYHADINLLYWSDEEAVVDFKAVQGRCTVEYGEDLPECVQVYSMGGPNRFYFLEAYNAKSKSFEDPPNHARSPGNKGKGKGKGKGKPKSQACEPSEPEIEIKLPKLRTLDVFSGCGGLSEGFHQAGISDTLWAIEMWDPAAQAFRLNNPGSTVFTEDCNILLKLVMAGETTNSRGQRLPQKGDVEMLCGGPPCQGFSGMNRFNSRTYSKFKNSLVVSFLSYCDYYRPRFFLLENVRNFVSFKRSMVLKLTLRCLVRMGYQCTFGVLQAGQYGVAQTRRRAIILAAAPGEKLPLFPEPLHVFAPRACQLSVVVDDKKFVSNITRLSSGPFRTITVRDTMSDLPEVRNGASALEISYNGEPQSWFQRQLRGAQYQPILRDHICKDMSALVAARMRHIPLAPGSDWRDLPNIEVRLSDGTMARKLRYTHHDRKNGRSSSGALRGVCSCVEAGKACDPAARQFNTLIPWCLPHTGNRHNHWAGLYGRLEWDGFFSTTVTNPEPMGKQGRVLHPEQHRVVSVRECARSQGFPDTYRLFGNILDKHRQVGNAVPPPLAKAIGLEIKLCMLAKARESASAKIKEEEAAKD
# Sequence of FAD-linked sulfhydryl oxidase ALR (P55789 whole entry): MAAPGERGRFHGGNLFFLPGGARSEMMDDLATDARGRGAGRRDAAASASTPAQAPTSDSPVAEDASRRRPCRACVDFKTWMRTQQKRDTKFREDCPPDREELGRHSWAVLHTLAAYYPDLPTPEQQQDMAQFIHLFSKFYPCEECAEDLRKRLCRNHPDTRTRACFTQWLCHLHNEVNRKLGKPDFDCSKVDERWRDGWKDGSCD
# Sequence of Albumin (P02769 whole entry): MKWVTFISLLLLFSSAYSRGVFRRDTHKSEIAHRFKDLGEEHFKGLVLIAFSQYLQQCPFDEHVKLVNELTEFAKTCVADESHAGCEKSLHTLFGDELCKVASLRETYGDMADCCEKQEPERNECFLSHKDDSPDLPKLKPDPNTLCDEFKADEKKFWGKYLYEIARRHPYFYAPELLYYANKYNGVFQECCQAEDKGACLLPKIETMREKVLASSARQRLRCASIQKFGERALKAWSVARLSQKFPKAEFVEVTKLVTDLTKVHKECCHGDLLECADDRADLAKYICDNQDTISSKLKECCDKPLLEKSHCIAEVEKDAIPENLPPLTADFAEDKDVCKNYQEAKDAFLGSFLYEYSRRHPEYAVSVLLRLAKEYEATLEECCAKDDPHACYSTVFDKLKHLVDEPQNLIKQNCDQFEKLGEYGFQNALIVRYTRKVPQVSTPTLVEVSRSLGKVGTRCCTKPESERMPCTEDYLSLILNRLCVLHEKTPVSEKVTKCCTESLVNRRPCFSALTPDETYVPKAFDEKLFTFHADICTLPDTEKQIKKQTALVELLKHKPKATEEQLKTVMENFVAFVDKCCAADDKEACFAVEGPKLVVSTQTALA
# Sequence of Paired box protein Pax-8 (Q06710 whole entry): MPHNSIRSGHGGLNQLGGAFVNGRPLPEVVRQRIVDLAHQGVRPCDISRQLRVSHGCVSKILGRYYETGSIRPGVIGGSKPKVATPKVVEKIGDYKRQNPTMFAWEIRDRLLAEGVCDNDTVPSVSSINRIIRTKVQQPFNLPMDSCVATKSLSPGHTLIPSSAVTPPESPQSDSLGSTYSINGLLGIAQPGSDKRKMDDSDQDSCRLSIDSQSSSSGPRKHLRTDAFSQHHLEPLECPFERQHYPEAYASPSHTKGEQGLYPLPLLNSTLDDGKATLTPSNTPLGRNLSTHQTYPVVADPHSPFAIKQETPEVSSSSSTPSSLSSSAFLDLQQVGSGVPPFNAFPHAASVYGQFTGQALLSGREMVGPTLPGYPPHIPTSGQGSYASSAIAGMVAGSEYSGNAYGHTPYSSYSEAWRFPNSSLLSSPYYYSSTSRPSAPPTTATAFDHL
smiles,measurement,setting,value
NCCCNC(=S)NCCCN(Cc1ccc(Cl)cc1)c1ccc(Br)cn1,AC50,[1],20.2 µM (active)
Cc1ccccc1NC(=O)CSc1ccsc1[N+](=O)[O-],IC50,[2],2.3 µM (active)
same,IC50,[3],7.7 µM (active)
CCOc1cccc2sc(N(CCN(C)C)C(=O)c3cc4ccccc4cc3OC)nc12,AC50,[1],12.5 µM (active)
CCOc1ccc(N(CC(=O)Nc2ccccc2OCC)S(=O)(=O)c2c(C)noc2C)cc1,EC50,[4],2.32 µM (active)
same,EC50,[5],0.495 µM (active)
same,EC50,[6],0.567 µM (active)
same,IC50,[7],> 67.5 µM (inactive)
same,IC50,[8],> 67.5 µM (inactive)
Cc1cccc(N2C(=O)/C(=C\NNC(=O)c3ccccc3Cl)c3ccccc3C2=O)n1,AC50,[9],9.36 µM (active)
same,IC50,[10],> 94.1 µM (inactive)
C=C1c2ccccc2NC(=O)N1c1ccc(OC)cc1,EC50,[11],> 91.1 µM (inactive)
same,EC50,[12],> 91.1 µM (inactive)
COc1ccc(COC(=O)c2cc([N+](=O)[O-])ccc2N2CCOCC2)cc1F,IC50,[13],> 80 µM (inactive)
same,AC50,[14],0.023 µM (active)
same,IC50,[7],> 67.5 µM (inactive)
same,IC50,[8],> 0.278 µM (active)
same,AC50,[15],< 0.26 µM (active)
COCc1cc(O)n2nc(-c3ccc(C)cc3)cc2n1,EC50,[11],> 91.2 µM (inactive)
same,EC50,[12],> 91.2 µM (inactive)
CN(C)CCOc1nc(-c2ccccc2)nc2c1oc1ccccc12,CC50,[16],12.5 µM (active)
same,CC50,[17],34 µM (active)
same,CC50,[18],> 20 µM (active)
same,IC50,[19],10.7 µM (active)
same,IC50,[3],> 99 µM (inactive)
same,AC50,[20],4.97 µM (active)
same,EC50,[11],> 10.1 µM (inactive)
same,EC50,[12],> 91.2 µM (inactive)
O=C(/C=C\Nc1cccc(F)c1)c1ccc2c(c1)OCO2,EC50,[5],7.42 µM (active)
same,EC50,[6],7.2 µM (active)
same,IC50,[7],> 67.5 µM (inactive)
same,IC50,[8],> 0.0926 µM (active)
N#Cc1ccccc1 [BENZONITRILE],AC50,[21],7.08 µM (inconclusive)
